Source: patent publication US8461186B2, “Use of N-piperidine derivatives for the treatment of neurodegenerative pathologies” (Medestea Research & Production S.p.A., priority 2004, dated 2013)
Where two headings read alike, the source gives them in different places.

Columns and labels:
[1] = tested on: rats receiving Paraquat into Substantia Nigra; type: in vivo, rat; conditions: for deaths of rats: 120 mg/kg intraperitoneally 5 minutes prior to, simultaneously with, or 5 minutes after 50 μg Paraquat; for signs of alterations during continuous monitoring / survival for a further 24 hours: Paraquat (50 μg) microinfused simultaneously with 1 μg compound; for capacity to cross the blood-brain barrier (BBB): concluded from protection after intraperitoneal administration; for protection against the behavioural and neuropathological effects induced by Paraquat: intracerebral and peripheral administration
From the text: The Paraquat/rat/PS experimental model was therefore selected as the most indicative for checking the efficacy of chemical compounds according to the present invention; of these, two anti-oxidants designated MP1002 and MP1001 were used in the tests:
Male Sprague Dawley rats (210-220 g weight) were kept on a standard laboratory diet supplemented with “Nossan Pellets” (both the animals and the pellets are available from Nossan Company, Milan, Italy) and were housed for three weeks (relative humidity 50%±10%, temperature 22° C.±1 and in a light/darkness cycle of 12 hours/12 hours, with first light at 7.30 a.m.) prior to the tests; food and water were available ad libitum.
Prior to treatment, the rats were anaesthetized by intraperitoneal injection of 380 mg/kg weight of chloral hydrate; a stainless steel guide cannula (size 25) was implanted unilaterally in the Substantia Nigra with stereotaxic guiding and was secured to the cranium with dental acrylic material.
The animals (20 per test group) were allowed a recovery period of seven days prior to treatment; during this period no change in motor activity or posture was observed. Microinfusions were performed by means of a 10 μl Hamilton syringe connected to an injection cannula by means of a Teflon tube. The compounds or the vehicle (0.8% NaCl) were injected at a total volume of 1 μl/minute.
Microinfusion of 50 μg of Paraquat into the Substantia Nigra (n=20 rats) led to an increase in motor activity with the animals performing jumps and moving in circles in a contralateral direction relative to the injection position, about 24 minutes later; all of the animals were dead 24±2.5 hours after infusion. A further twenty animals were infused with Paraquat and twenty with Paraquat plus vehicle; about ten of the animals for each group survived 20 hours after treatment and were used to determine the development of lipid peroxidation in the Substantia Nigra.

[2] = tested on: myocardial ischaemia and reperfusion (I/R) in the rat; test: Myocardial lesion due to ischaemia and reperfusion (LAD occlusion): size of the infarct; type: in vivo; conditions: 10 mg/kg bolus 5 minutes prior to reperfusion, then 2 mg/kg/h; LAD occlusion 25 minutes, reperfusion 2 hours; p<0.01 (FIG. 1)
Protocol: The in vivo model of myocardial lesion due to ischaemia and reperfusion was selected as the most suitable for checking the efficacy of the compounds MP1002 and MP1001 according to the invention.
Male Sprague Dawley rats (220-230 g) were kept on a standard laboratory diet supplemented with “Nossan Pellets” (Nossan Company, Milan, Italy) and were housed for three weeks prior to the tests (relative humidity 50%±10, temperature 22° C.±1 and light/darkness cycle of 12/12 hours with first light at 7.30 a.m.); food and water were available ad libitum.
The rats (twenty per group) were anaesthetized by intraperitoneal injection of chloral hydrate (380 mg/kg) and were then tracheotomized, intubated and ventilated with ambient air by a suitable ventilator; body temperature was kept at 38° C.±1 and the right carotid artery was cannulated and connected to a pressure transducer to monitor the mean arterial blood pressure (MAP). […]
The coronary artery was occluded by tightening the occluder, a procedure which is correlated with the electrocardiographic and haemodynamic changes (drop in MAP) which are typical of myocardial ischaemia. […] The heart rate (HR) and MAP were monitored continuously. […]

[3] = tested on: lipid peroxidation in the Substantia Nigra; type: in vivo; conditions: for Lipid Peroxidation: Substantia Nigra, 24 hours; for lipid peroxidation in the Substantia Nigra: treatment before, with, or after infusion with Paraquat, p<0.01
Protocol: Microinfusion of 50 μg of Paraquat into the Substantia Nigra (n=20 rats) led to an increase in motor activity with the animals performing jumps and moving in circles in a contralateral direction relative to the injection position, about 24 minutes later; all of the animals were dead 24±2.5 hours after infusion. […]
(§1) […]. Enzymol. 52, 302-310, 1978.

[4] = tested on: lipid peroxidation in the heart tissue; test: Malondialdehyde (MDA) in the heart tissue in myocardial ischaemia and reperfusion; type: in vivo, rat; conditions: I/R rats, 10 mg/kg bolus then 2 mg/kg/h; p<0.01 (FIG. 2)
Protocol: as §1
The following test groups were considered: a) LAD occlusion (25 minutes) and reperfusion (2 hours) plus administration of the vehicle (saline solution, 3 ml/kg-v-bolus plus 1.8 ml/kg/h) starting 5 minutes after reperfusion and maintained during the reperfusion period; b) LAD occlusion and reperfusion plus administration of MP1002 or MP1001 (10 mg/kg injection in bolus) 5 minutes prior to reperfusion, followed by infusion of 2 mg/kg/h during the reperfusion period; c) sham operation (no LAD occlusion) and infusion of the vehicle; d) sham operation and infusion of MP1002 or MP1001 as described above.
The malondialdehyde (MDA) in the heart tissue as final peroxidation product of the cell membrane lipids was also determined as described above.

[5] = 50 μg paraquat by microinfusion, 5 minutes later 100 mg/kg b.w. intraperitoneal
[6] = pretreated intraperitoneally 120 mg/kg b.w., after 5 minutes paraquat (50 μg) by microinfusion
[7] = simultaneous microinfusion into Substantia Nigra of paraquat (50 μg) with 1 μg compound
[8] = simultaneously 50 μg paraquat by microinfusion and 120 mg/kg b.w. intraperitoneal
[9] = pretreated intraperitoneally 120 mg/kg b.w., after 5 minutes paraquat (50 μg)
[10] = simultaneous microinfusion of paraquat (50 μg) with 1 μg compound

Row | Structure (SMILES) | Duration (seizures) [1, 5] | Latency (seizures) [1, 5] | Mortality [1, 5] [%] | deaths of rats [1] | signs of alterations during continuous monitoring [1] | survival for a further 24 hours [1] | capacity to cross the blood-brain barrier (BBB) [1] | protection against the behavioural and neuropathological effects induced by Paraquat [1] | Duration (seizures) [1, 6] | Latency (seizures) [1, 6] | Mortality [1, 6] [%] | Duration (seizures) [1, 7] | Latency (seizures) [1, 7] | Mortality [1, 7] [%] | Duration (seizures) [1, 8] | Latency (seizures) [1, 8] | Mortality [1, 8] [%] | reduction in the size of the infarct compared with the control [2] [%] | Lipid Peroxidation [3, 5] | Lipid Peroxidation [3, 9] | further results
1 | CC1(C)CC(OC(=O)CCCCCCCCC(=O)OC2CC(C)(C)N(O)C(C)(C)C2)CC(C)(C)N1O [MP1002, bis(1-oxyl-2,2,6,6-tetramethyl-4-piperidinyl)decandioate] | No seizures and epileptic discharges | No seizures and epileptic discharges | 0 | none of the rats died | no signs of alterations were observed | all of the animals survived | cross the blood-brain barrier | protected completely | No seizures and epileptic discharges | No seizures and epileptic discharges | 0 | No seizures and epileptic discharges | No seizures and epileptic discharges | 0 | No seizures and epileptic discharges | No seizures and epileptic discharges | 0 | 80 | 4.1 ± 0.39 nmol MDA × h^−1 × mg prot^−1 | 5.2 ± 0.75 nmol MDA × h^−1 × mg prot^−1 | Lipid Peroxidation [3, 10]: 4.3 ± 0.63 nmol MDA × h^−1 × mg prot^−1; Lipid Peroxidation [3, 8]: 4.9 ± 0.86 nmol MDA × h^−1 × mg prot^−1; lipid peroxidation in the Substantia Nigra [3]: markedly and significantly (p<0.01) reduced lipid peroxidation; development of lipid peroxidation in heart tissue (MDA) [4]: reduced the development of peroxidation to levels similar to those of the animals that were subjected to sham operations
2 | CC1(C)CC(OC(=O)CCCCCCCCC(=O)OC2CC(C)(C)N(O)C(C)(C)C2)CC(C)(C)N1O [MP1001, BIS(1-HYDROXYL-2,2,6,6-TETRAMETHYL-4-PIPERIDINYL)DECANDIOATE] | No seizures and epileptic discharges | No seizures and epileptic discharges | 0 | none of the rats died | no signs of alterations were observed | all of the animals survived | cross the blood-brain barrier | protected completely | No seizures and epileptic discharges | No seizures and epileptic discharges | 0 | No seizures and epileptic discharges | No seizures and epileptic discharges | 0 | No seizures and epileptic discharges | No seizures and epileptic discharges | 0 | 78 | 4.8 ± 0.57 nmol MDA × h^−1 × mg prot^−1 | 4.7 ± 0.49 nmol MDA × h^−1 × mg prot^−1 | Lipid Peroxidation [3, 10]: 5.4 ± 0.84 nmol MDA × h^−1 × mg prot^−1; Lipid Peroxidation [3, 8]: 5.1 ± 0.94 nmol MDA × h^−1 × mg prot^−1; lipid peroxidation in the Substantia Nigra [3]: markedly and significantly (p<0.01) reduced lipid peroxidation; development of lipid peroxidation in heart tissue (MDA) [4]: reduced the development of peroxidation to levels similar to those of the animals that were subjected to sham operations
